Test results from publication PMC9506420, “Biological Evaluation of 3-Azaspiro[Bicyclo[3.1.0]Hexane-2,5′-Pyrimidines] as Potential Antitumor Agents” (International Journal of Molecular Sciences, 2022).

Tests used:
Vero cells = assay: Actin cytoskeleton staining (rhodamine-phalloidin, confocal microscopy), Vero; format: cell-based, African green monkey; settings: 5 μg/mL, 24 h
Experimental: Therefore, in the current study, the actin cytoskeleton structure of HeLa, CT26, and Vero cells was analyzed, after the impact of compounds 4a–i, by the presence of filopodia-like protrusions and the availability of stress fibers (Figure 14, Figure 15 and Figure 16). […] HeLa cells were more sensitive to the action of tested products, compared to CT26 and Vero cells.
Cells were seeded onto Petri dishes with cover slips at a density of 2 × 10^5 cells per dish and incubated for 24 h. After that, cells were treated with compounds 4d, 4e, 4f, 4h, and 4i (5 μg/mL) for 24 h. The medium was removed, and cells were fixed with 4% paraformaldehyde (Sigma-Aldrich, St. Louis, MO, USA), washed three times with PBS, and permeabilized with 0.3% Triton-X100 (Sigma-Aldrich, St. Louis, MO, USA). The cells were rinsed three times with PBS. Actin filaments (microfilaments) were stained at 37 °C for 15 min with rhodamine-phalloidin (Invitrogen, Carlsbad, CA, USA). The samples were rinsed three times with PBS, followed by embedding in Fluoroshield medium (Sigma-Aldrich, St. Louis, MO, USA). Cells were imaged using an Axio Observer Z1 confocal microscope (Carl Zeiss MicroImaging GmbH, Jena, Germany). In each experiment, at least 30 cells were imaged. Images were analyzed by a pathologist, blinded to the treatment mode used for each group, using ImageJ software.

CT26 tumor = assay: In vivo evaluation in CT26 tumor-bearing Balb/C mice
Experimental: In vivo studies were performed using CT26 tumor-bearing Balb/C mice. After the average tumor volume reached approximately 270 mm^3, the mice were injected intraperitoneally with 300 μL of 3 μM suspension of compounds 4d, 4e, 4f, and 4i in 10% aq. DMSO solution. Mice in the control group were injected with 300 μL of 10% aq. DMSO solution. Observation of the animals continued for 10 days, with the measurement of tumor sizes two times a week.
All animals were bred and maintained in specific pathogen-free facilities in accordance with the Rus-LASA and FELASA guidelines. This study complied with all relevant ethical regulations for animal testing and research and received ethical approval from the Almazov National Medical Research Centre (protocol No. 21-02, dated 26 March 2021). Animal experiments were carried out in accordance with the principles of humane treatment of animals, regulated by requirements of Council of Europe 2006; European Convention for the Protection of Vertebrate Animals Used for Experimental and other Scientific Purposes (ETS No. 123); the European Parliament and the Council of the European Union 2010; Directive 2010/63/EU of the European Parliament and of the Council of 22 September 2010 on the Protection of Animals Used for Scientific Purposes; and FELASA guidelines. Male, 20–22 g, SPF Balb/C mice (Pushchino, Moscow region, Russian Federation) were used throughout. Animals were maintained at 22 ± 2 °C and relative humidity 50 ± 10% with 12 h light/dark cycle. All mice received water and food ad libitum. Animals were checked daily by the veterinarian, and their state of health was monitored continuously. Animal body weight was recorded every three days (GX-600 Precision Balance, A&D Weighing, San Jose, CA, USA).
The greatest transverse diameter (width) and the greatest longitudinal diameter (length) of a tumor were determined with a Vernier mechanical caliper. The tumor volume (V) was calculated using the following formula: V = length × width 2/2000 [50]. Mice were inoculated subcutaneously in the right flank, with 2 × 10^6 CT26 cells per mouse in PBS (Corning, Glendale, AZ, USA). Ten days later, when the average tumor volume reached […], the mice were randomized into groups (n = 7 per group). An amount of 300 μL of 3 μM suspension of compounds 4d, 4e, 4f, and 4i in 10% aq. DMSO solution was injected intraperitoneally at once. The control group was injected with 10% aq. DMSO solution only. The tumor volumes were monitored as described above, along with body weight. Mice were euthanized when the subcutaneous tumor reached a volume of […].

HeLa cells = assay: Cell cycle distribution by flow cytometry (propidium iodide), HeLa; format: cell-based, human
Experimental: (§1) One of the indicators of the influence of biologically active products on the cells is the changed distribution of cells during different stages of the cell cycle. In this work, recently synthesized compounds were tested using flow cytometry for their effect on the distribution of cells in the cell cycle (G0/G1, G2/M, and S). Figure 8, Figure 9 and Figure 10 and Table 3 show the typical data after processing the results from three replicates of each experiment.
(§2) The distribution of HeLa and CT26 cells in the G0/G1-, S-, and G2/M-phases of the cell cycle was obtained by quantification of DNA content in propidium-iodide-stained cells using flow cytometry. Briefly, cells were seeded in 24-well plates at a density of 5 × 10^4 cells per well. After 24 h incubation, cells were exposed to 10 μg/mL of compounds 4c–i (the structure is provided in Scheme 1) for 24 h. The effects of compounds 4d, 4e, 4g, 4h were additionally tested at concentrations of 2 and 5 μg/mL. After incubation with drugs, the cells were detached by exposure to trypsin-EDTA for 5 min at 37 °C and then collected by pipetting. This was followed by treatment with 0.2 mg/mL saponin (Fluka, Waltham, MA, USA), 0.25 mg/mL RNase (Sigma-Aldrich, St. Louis, MO, USA), and 0.05 mg/mL propidium iodide (Invitrogen, Carlsbad, CA, USA). After washing, the samples were analyzed by standard flow cytometer (BD FACSCanto II, Becton Dickinson, San Jose, CA, USA). Then, 10,000 events were acquired for the sample. Data processing was performed using BD FACSDiva 9.0 software.

CT26 cells = assay: Cell cycle distribution by flow cytometry (propidium iodide), CT26; format: cell-based, mouse
Experimental: as §1, §2

CCCC[C@@H]1NC2(C(=O)NC(=O)NC2=O)[C@]2(c3ccccc3)[C@@H](c3ccccc3)[C@]12c1ccccc1 [Compound 4e]
percentage of cells with disassembled stress fibers (D) (Vero cells): 11%
percentage of cells with filopodia-like deformations (A) (Vero cells): 44%
percentage of cells with normal stress fibers (C) (Vero cells): 89%
percentage of cells without filopodia-like deformations (B) (Vero cells): 56%
death of experimental animals by the end of the observation period (CT26 tumor; n = 7 per group, single i.p. 300 μL of 3 μM suspension, 10 days, control group one animal): two
autopsy finding in the abdominal cavity (agglomerates of injected material) (CT26 tumor; single i.p. injection, autopsy at end of experiment, diameter of up to 1 mm): persistent, rounded, dense agglomerates of white or yellowish-white foreign material
macroscopic signs of acute toxicity at autopsy (CT26 tumor; single i.p. injection, autopsy of abdominal organs): No signs of acute intoxication
cytostatic effect (cell cycle), HeLa (HeLa cells; HeLa cell line): strongest cytostatic effect
SubG1 (%) (HeLa cells; HeLa, 10 μg/mL, 24 h, control 2.3 ± 0.4): 34.4 ± 5.8 %
G2/M (%) (HeLa cells; HeLa, 10 μg/mL, 24 h, control 12.2 ± 1.3): 5.7 ± 0.9 %
S (%) (HeLa cells; HeLa, 10 μg/mL, 24 h, control 12.5 ± 1.7): 16.7 ± 1.2 %
G0/G1 (%) (HeLa cells; HeLa, 10 μg/mL, 24 h, control 73.1 ± 2.6): 43.1 ± 1.4 %
SubG1 (%) (CT26 cells; CT26, 10 μg/mL, 24 h, control 3.6 ± 0.6): 19.3 ± 5.1 %
G2/M (%) (CT26 cells; CT26, 10 μg/mL, 24 h, control 12.3 ± 0.9): 14.1 ± 9.4%
S (%) (CT26 cells; CT26, 10 μg/mL, 24 h, control 40.1 ± 1.5): 28.5 ± 1.8 %
G0/G1 (%) (CT26 cells; CT26, 10 μg/mL, 24 h, control 44.0 ± 1.7): 38.1 ± 6.4 %
cytostatic effect (cell cycle), CT26 (CT26 cells; CT26 cell line): best effect
